Broadly, the IC50 is the midpoint of a concentration-inhibition curve. Lower therefore signals inhibition by little substance.

Molecules are shown by their SMILES. “And” between values parts separate entries of the source, which are not always exact repeats. Equal values may be shown once.

For the first assay, the system named is MDA-MB231 cells. Description: MTT assay for anticancer activity, MDA-MB231 cells. The class given is cell-based, human. The note with it: MDA-MB231 breast cancer cells, 3-day exposure protocol. The method, then: (§1) Human breast cancer cells (MDA-MB231, MCF-7) were grown in Dulbecco's modified Eagle's medium (DMEM) supplemented with 10% fetal bovine serum (FBS) and 1% penicillin (10,000 units) with streptomycin (10 mg) in a 74 cm^2 flask and incubated until 80% confluence was obtained in a humidified environment of 5% CO2-95% air at 37° C.
(§2) Cancer cells were seeded and maintained in quadruplicate in a 96-well tissue culture plate at 5×10^3 cells per well in 150 μl of the same medium. The cancer cells were incubated for 24 hours before the treatment. All compounds were dissolved in 50% DMSO. Therefore, DMSO was used as a negative control. Complexes 1-5 and cisplatin (positive control) at 0.01 μM, 0.05 μM, 0.1 μM, 1 μM, 5 μM, 10 μM, and 50 μM concentrations were prepared in DMEM. The final DMSO concentration, in each well, was less than 0.1%.
(§3) The cancer cells were treated with the synthesized compounds 1-5 and cisplatin and then incubated for […]. The medium from the wells was discarded and 100 μL of DMEM containing MTT (3-(4,5-dimethylthiazol-2-yl)-2,5-diphenyltetrazolium bromide) (5 mg/mL) was added to the wells. The cells were incubated in a CO2 incubator at 37° C. in the dark for 4 h. After incubation, a purple colored formazan (an artificial chromogenic dye, a product of the reduction of water […] tetrazolium salts, such as MTT, by dehydrogenases and reductases) was produced by the cells and appeared as dark crystals in the bottom of the wells. The medium from each well was discarded carefully to avoid disruption of the monolayer. 100 μL of isopropanol was added in each well. The solution was thoroughly mixed in the wells to dissolve the formazan crystals which ultimately results into a purple solution. The absorbance of the 96-well plate was taken at 570 nm with Mithras^2LB943 against a blank (e.g. unreduced MTT in isopropanol). All data presented are mean t standard deviation.
(§4) The in vitro cytotoxic effect of mixed ligand gold(I) complexes 1-5 against MDA-MB231 and MCF-7 were studied using the MTT assay. The in vitro cytotoxic activity depends on the exposure time and the concentrations of the complexes. For that reason, different concentrations of the complexes and a 3-day exposure protocol to determine the IC50 values for all five complexes and cisplatin were used.
Background: Tetrazolium assays rely on reduction of a dye to a coloured formazan, in cell work by metabolically active cells.
Consider `CCN(CC)C(=S)[S][Au-][P+](C)(C)C` [Complex 3, (Me)3PAu(S2CN{Et}2)], for which the IC50 came out at 0.043 µM.

In the case of `CC[P+](CC)(CC)[Au-][S]C(=S)N(C)C` [Complex 2, (Et)3PAu(S2CN{Me}2)], the IC50 was 0.055 µM.

`CC(C)[P+]([Au-][S]C(=S)N(C)C)(C(C)C)C(C)C` [Complex 5, (i-Pr)3PAu(S2CN{Me}2)] came in with an IC50 of 0.7 µM.

Regarding `CN(C)C(=S)[S][Au-][P+](C)(C)C` [Complex 1, (Me)3PAu(S2CN{Me}2)], half-maximal inhibition (IC50) required 0.044 µM.

Take `CCN(CC)C(=S)[S][Au-][P+](CC)(CC)CC` [Complex 4, (Et)3PAu(S2CN{Et}2)]: the IC50 was determined as 0.044 µM.

Regarding `N.N.[Cl][Pt][Cl]` [Cisplatin, reference compound], the IC50 worked out at 25.8 µM.

For a further assay, the system named is MCF-7 cells. Briefly: MTT assay for anticancer activity, MCF-7 cells. Format: cell-based, human. The note with it: MCF-7 breast cancer cells, 3-day exposure protocol. The method, then:
as §1, §2, §3, §4
As to `CCN(CC)C(=S)[S][Au-][P+](C)(C)C` [Complex 3, (Me)3PAu(S2CN{Et}2)], half-maximal inhibition (IC50) was put at 0.0088 µM.

For the molecule `CC[P+](CC)(CC)[Au-][S]C(=S)N(C)C` [Complex 2, (Et)3PAu(S2CN{Me}2)], the midpoint of inhibition, the IC50, lay at 0.0064 µM.

In the case of `CC(C)[P+]([Au-][S]C(=S)N(C)C)(C(C)C)C(C)C` [Complex 5, (i-Pr)3PAu(S2CN{Me}2)], the IC50 is 0.0078 µM and 0.0079 µM.

Turning to `CN(C)C(=S)[S][Au-][P+](C)(C)C` [Complex 1, (Me)3PAu(S2CN{Me}2)], the IC50 was found to be 0.0078 µM.

For `CCN(CC)C(=S)[S][Au-][P+](CC)(CC)CC` [Complex 4, (Et)3PAu(S2CN{Et}2)], the IC50 worked out at 0.0053 µM.

`N.N.[Cl][Pt][Cl]` [Cisplatin, reference compound] gave an IC50 of 0.0059 µM.

In another assay the test system is CT-DNA. Briefly: Fluorescence emission titration with CT-DNA (Scatchard). Format: binding, calf. The note with it: complex 1.3×10^−4 M, excitation 275 nm, Tris-HCl/NaCl buffer, mean standard deviations ±0.07. Here is the method: Fluorescence experiments were carried out at a constant concentration of the complexes with increasing CT-DNA concentrations. The binding constant, K, of the gold(I) complexes was determined from Scatchard eqs. (2) and (3) by employing emission titration (Liu, D. G.; Liao, P. J.; Fang, Z. Y.; Huang, S. S.; Sheng, L. G.; Yu, Q. R. Interaction of bis(ethylene)tin(bis(salicylidene)ethylenediamine) with DNA. Anal. Sci. 2002, 18 391-395; and Healy, F. E. Quantitative determination of DNA-ligand binding using fluorescence spectroscopy. J. Chem. Educ. 2007, 84, 1304-1307, each incorporated herein by reference in their entirety). CF=CT(I/Io−P)(1−P) (2) r/CF=K(n−r) (3) where CF is the free probe (i.e. free metal complex) concentration, CT is the total concentration of the probe added, I and Io are fluorescence intensities in the presence and absence of CT-DNA, respectively, r denotes a ratio of CB (CB=CT−CF) to the DNA concentration, i.e., the bound probe concentration to the DNA concentration, K is the binding constant, “n” is the binding site number, and P is the ratio of the observed fluorescence quantum yield of the bound probe to that of the free probe. The value P was obtained as the intercept by extrapolating from a plot of I/Io vs. 1/[DNA].
The fluorescence emission titration of complexes 1-5 was carried out in order to understand the nature of binding mode of these complexes with CT-DNA. This method is highly sensitive, reproducible, and accurate. In the absence of CT-DNA, all complexes 1-5 (concentration=1.3×10^−4 M) emitted strong luminescence when excited at 275 nm in Tris-HCl/NaCl buffer with an emission maximum appearing at 340 nm. However, the subsequent addition of CT-DNA from 0.067-0.5×10^−4 M caused a gradual enhancement in the fluorescence intensity of the complexes with no apparent change in the shape and position of the emission bands (FIGS. 10A-10E), which is indicative of a strong interaction of the Au(I) drug entities with CT DNA. The hydrophobic molecular structure of CT DNA could be responsible for enhancing the fluorescence quantum yield of complexes, leading to the higher fluorescence intensity with increasing concentration of CT DNA. In addition, energy transfer from CT-DNA to metal complexes could also induce fluorescence enhancement (Arjmand, F.; Jamsheera, A.; Afzal, M.; S. Tabassum, S. Enantiomeric Specificity of Biologically Significant Cu(II) and Zn(II) Chromone Complexes Towards DNA. Chirality. 2012, 24, 977-986, Tabassum, S.; Yadav, S.; Arjmand, F. Synthesis and mechanistic insight of glycosylated Cu^II/Ni^II—Sn2^IV heterobimetallic DNA binding agents: Validation of a specific Cu^II—Sn2^IV chemotherapeutic agent for human leukemic cell line K-562. J. Organomet. Chem. 2013, 745-746, 226-234, incorporated herein by reference in its entirety).
`CCN(CC)C(=S)[S][Au-][P+](C)(C)C` [Complex 3, (Me)3PAu(S2CN{Et}2)]: the “Scatchard binding constant K” value is 57000 M⁻¹.

With `CC[P+](CC)(CC)[Au-][S]C(=S)N(C)C` [Complex 2, (Et)3PAu(S2CN{Me}2)], the “Scatchard binding constant K” value came to 35000 M⁻¹.

Consider `CC(C)[P+]([Au-][S]C(=S)N(C)C)(C(C)C)C(C)C` [Complex 5, (i-Pr)3PAu(S2CN{Me}2)], for which the “Scatchard binding constant K” value turned out to be 19000 M⁻¹.

For `CN(C)C(=S)[S][Au-][P+](C)(C)C` [Complex 1, (Me)3PAu(S2CN{Me}2)], the “Scatchard binding constant K” value came out at 28000 M⁻¹.

Regarding `CCN(CC)C(=S)[S][Au-][P+](CC)(CC)CC` [Complex 4, (Et)3PAu(S2CN{Et}2)], the “Scatchard binding constant K” value came out at 66000 M⁻¹.

Another assay has as its system EB-DNA system (CT DNA treated with EB). Description: Ethidium bromide displacement fluorescence quenching (Stern-Volmer). Format: binding, calf. The note with it: EB-bound CT DNA, emission at 585-590 nm. Here is the method: Luminescence titrations involving quenching experiments were conducted by adding increasing concentration of the complexes to a fixed concentration of EB-DNA system. The Tris-HCl buffer was used as a blank to make preliminary adjustments. The Stern-Volmer quenching constant, Ksv was obtained from the following equation (Lakowiez, R. J.; Webber, G. Quenching of fluorescence by oxygen. Probe for structural fluctuations in macromolecules. Biochem. 1973, 12, 4161-4170, incorporated herein by reference in its entirety). I0/I=1+KSV·r (4) where r is the ratio of total concentration of complex to that of DNA, and Io and I are the fluorescence intensities of EB in the absence and presence of complex.
A reliable method for studying the binding of molecules to nucleic acids is the fluorescence quenching method. Ethidium bromide (EB) is a planar cationic dye which is widely used as a sensitive fluorescence probe for native DNA. EB emits intense fluorescent light in the presence of DNA due to its strong intercalation between the adjacent DNA base pairs. The displacement technique is based on the decrease of fluorescence resulting from the displacement of EB from a DNA sequence by a quencher, and the quenching is due to the reduction of the number of binding sites on the DNA that are available to the EB (Ramachandran. E.; Raja, S. D.; Bhuvanesh, P. S. N.; Natarajan, K. Mixed ligand palladium(II) complexes of 6-methoxy-2-oxo-1,2-dihydroquinoline-3-carbaldehyde 4N-substituted thiosemicarbazones with triphenylphosphine co-ligand: Synthesis, crystal structure and biological properties. Dalton Trans. 2012, 41 13308-13323, incorporated herein by reference in its entirety). […] From the above data, it is clear that 4 replaces EB more effectively than other complexes, and this observation agreed with the results obtained from electronic absorption studies.
For `CCN(CC)C(=S)[S][Au-][P+](C)(C)C` [Complex 3, (Me)3PAu(S2CN{Et}2)], the “Stern-Volmer quenching constant KSV” value is given as 0.67.

In the case of `CC[P+](CC)(CC)[Au-][S]C(=S)N(C)C` [Complex 2, (Et)3PAu(S2CN{Me}2)], the “Stern-Volmer quenching constant KSV” value was determined as 0.34.

In the case of `CC(C)[P+]([Au-][S]C(=S)N(C)C)(C(C)C)C(C)C` [Complex 5, (i-Pr)3PAu(S2CN{Me}2)], the “Stern-Volmer quenching constant KSV” value came out at 0.10.

Regarding `CN(C)C(=S)[S][Au-][P+](C)(C)C` [Complex 1, (Me)3PAu(S2CN{Me}2)], the “Stern-Volmer quenching constant KSV” value stood at 0.19.

As for `CCN(CC)C(=S)[S][Au-][P+](CC)(CC)CC` [Complex 4, (Et)3PAu(S2CN{Et}2)], the “Stern-Volmer quenching constant KSV” value was found to be 0.91.

These data come from patent US10273257B2, “Cancer cell-containing composition” (KING FAHD UNIVERSITY OF PETROLEUM AND MINERALS, priority 2016, dated 2019).
